Publication PMC4649711, “In1-ghrelin splicing variant is overexpressed in pituitary adenomas and increases their aggressive features” (Scientific Reports, 2015)
Where “and” joins values, the source holds several entries; their conditions need not be identical. Equal values may be shown once. Entries after “also recorded” stand apart in the source; their conditions may differ.

Key:
[1] = tested on: NFPA (tumoral pituitary cells); test: free cytosolic calcium kinetics ([Ca^2+]i), NFPA cells; assay type: cell-based, human
Experimental: (§1) Pituitary adenoma specimens were dispersed into single cells by enzymatic and mechanical disruption and cultured onto tissue culture plates in serum containing medium, as previously described. Briefly, pituitary samples were resected by endoscopic transsphenoidal surgery and transferred to sterile cold (4°C) culture medium (S-MEM, Gibco, Madrid, Spain) supplemented with 0.1% BSA, 0.01% L-glutamine, 1% antibiotic-antimycotic solution, and 2.5% HEPES. Samples were minced under sterile conditions into 1–2 mm^3 pieces. Some pieces were stored at −80°C for posterior RNA isolation and, when possible, the remaining tissue samples were washed and incubated in 30 mL S-MEM medium supplemented 0.3% trypsin (Beckson, Dickinson and Company, Sparks, MD, USA) in a spinner flask (Bellco Glass, Vineland, NJ, USA) for 2 h of gentle shaking at 37°C and then, incubation was continued for another 5 min in presence of 1 mg of DNAse I (Roche, Mannheim, Germany). Dispersed cells were decanted by centrifugation and then, by repeated aspiration into a smoothtipped glass Pasteur pipette. […]
(§2) As previously reported, changes in [Ca^2+]i in single cells were measured using fura-2AM (50,000 cells/coverslip; Molecular Probes, Eugene, OR)[23][30]. […] Cells were examined for changes in [Ca^2+]i after the appropriate treatment (native ghrelin, In1-19 or In1-40) using a 40× objective with Immersion Oil Type NF (Nikon, Tokyo, Japan) while exposed to alternating 340–380 nm light beams, and the intensity of light emission at 505 nm was measured every 5 seconds using MetaFluor Software (Imaging Corp., West Chester, PA, USA). […] Changes in [Ca^2+]i in CHO-K1 cell line expressing recombinant GHSR1a or GHSR1b receptor were measured using Calcium 4 Explorer Kit (Molecular Devices, Sunnyvale, CA, USA). […] Fluorescent signals were then monitored using the FLIPR Tetra (Molecular Devices, Sunnyvale, CA, USA) during which cells were stimulated with compounds. Dose-response curves were analyzed using GraphPad Prism v5.04 (La Jolla, CA, USA).

[2] = tested on: GH-omas; test: apoptotic rate in GH-omas; assay type: cell-based, human; conditions: 100 nM, 12–14 h, Annexin V/Propidium Iodide, flow cytometry, n = 3
Experimental: as §1, with “pipette. Cells suspensions were washed once in 4.5 g/L glucose containing DMEM medium (Gibco, Madrid, Spain) supplemented with 0.1% BSA, 0.01% L-glutamine, 1% antibiotic-antimycotic solution, and 2.5% HEPES.” for “pipette.”

[3] = tested on: PRL-omas; test: cell viability of PRL-oma primary cultures, peptide treatment; assay type: cell-based, human; conditions: 100 nM, time not specified in text (24-, 48- and/or 72-h), alamar-blue, n = 2–3
Experimental: as §1
(§3) As previously reported, cell viability was estimated using alamar-blue reagent (10,000 cells/well-plate; Biosource International, Camarillo, CA, USA)[30][50][52]. […] Reduction of alamar-blue reagent was quantified exciting at 560 nm and reading at 590 nm using the FlexStation III system (Molecular Devices, Sunnyvale, CA, USA). […]

[4] = tested on: NFPAs; test: cell viability of NFPA primary cultures, peptide treatment; assay type: cell-based, human; conditions: 100 nM, alamar-blue, n = 3–15
Experimental: as §1, §3

[5] = tested on: GH-omas (tumoral pituitary cells); test: free cytosolic calcium kinetics ([Ca^2+]i), GH-oma cells; assay type: cell-based, human
Experimental: as §1, §2

[6] = tested on: pituitary adenoma cells; test: cell viability in all pituitary adenoma subtypes, peptide treatment; assay type: cell-based, human; conditions: 100 nM, 24-, 48- and/or 72-h, alamar-blue
Experimental: as §1, §3

[7] = tested on: GHSR-lacking cells (e.g. prostate cell lines); conditions: cited from earlier work
[8] = tested on: other endocrine cell types (e.g. pancreatic cells); parameters: method as in PMID 17068144; conditions: cited from earlier work
[9] = tested on: ACTH-omas; test: cell viability of ACTH-oma primary cultures, peptide treatment; assay type: cell-based, human; conditions: 100 nM, 24 h, alamar-blue, n = 2–8
Experimental: as §1, §3

[10] = tested on: ACTH-omas (tumoral pituitary cells); test: free cytosolic calcium kinetics ([Ca^2+]i), ACTH-oma cells; assay type: cell-based, human
Experimental: as §1, §2

[11] = tested on: ACTH-omas; parameters: method as in PMID 17280594; conditions: previous data; cited from earlier work
[12] = proportion of responsive cells, fura-2AM single-cell imaging

CCCCCCCC(=O)OC[C@H](NC(=O)[C@H](CO)NC(=O)CN)C(=O)N[C@@H](Cc1ccccc1)C(=O)N[C@@H](CC(C)C)C(=O)N[C@@H](CO)C(=O)N1CCC[C@H]1C(=O)N[C@@H](CCC(=O)O)C(=O)N[C@@H](Cc1c[nH]cn1)C(=O)N[C@@H](CCC(N)=O)C(=O)N[C@@H](CCCNC(=N)N)C(=O)N[C@H](C(=O)N[C@@H](CCC(N)=O)C(=O)N[C@@H](CCC(N)=O)C(=O)N[C@@H](CCCNC(=N)N)C(=O)N[C@@H](CCCCN)C(=O)N[C@@H](CCC(=O)O)C(=O)N[C@@H](CO)C(=O)N[C@@H](CCCCN)C(=O)N[C@@H](CCCCN)C(=O)N1CCC[C@H]1C(=O)N1CCC[C@H]1C(=O)N[C@@H](C)C(=O)N[C@@H](CCCCN)C(=O)N[C@@H](CC(C)C)C(=O)N[C@@H](CCC(N)=O)C(=O)N1CCC[C@H]1C(=O)N[C@@H](CCCNC(=N)N)C(=O)O)C(C)C [AG]
% cell resp. ([1]; NFPA, proportion of responsive cells, fura-2AM single-cell imaging): 29% and 29.4%
# samples ([1]; NFPA, responsive/tested samples, fura-2AM, 408 / 367 / 29 cells analyzed for AG / In1-19 / In1-40, peptides 100 nM (abstract)): 9/15
[Ca^2+]i response (in words) ([1]; NFPAs, fura-2AM): a subset of NFPA cells is responsive
apoptotic rate [2]: did not alter apoptotic rate
cell viability [3]: significant increases
cell viability ([4]; 24 h): reaching significant levels
cell viability ([4]; time not specified in text (24-, 48- and/or 72-h)): modest but consistent increments in cell viability; also recorded: increased NFPA cells viability
[Ca^2+]i response (in words) ([5]; fura-2AM): doubling the [Ca^2+]i levels; also recorded: increased [Ca^2+]i
% cell resp. [5, 12]: 74%
# samples ([5]; responsive/tested samples, fura-2AM single-cell imaging, 1500 / 983 / 520 cells analyzed for AG / In1-19 / In1-40, peptides 100 nM (abstract)): 27/27
cell viability [6]: increased cell viability in vitro in all pituitary adenoma subtypes
responses in GHSR-lacking cells [7]: have been found in GHSR-lacking cells
apoptotic rate [8]: did not affect the apoptotic rate
cell viability [9]: increased cell viability
[Ca^2+]i response (in words) ([10]; fura-2AM): doubling the [Ca^2+]i levels
% cell resp. [10, 12]: 74% and 74.1%
# samples ([10]; responsive/tested samples, fura-2AM, 742 / 230 / 143 cells analyzed for AG / In1-19 / In1-40, peptides 100 nM (abstract)): 9/9
ACTH release [11]: able to elicit an effect on ACTH release
